Source: ChEMBL document CHEMBL3430912, “GSK Tres Cantos Anti-Kinetoplastid Screening (TCAKS) Data”

Assays:
Trypanosoma cruzi [1] = assay: GSK_TCAKS: pIC50 Trypanosoma cruzi viability assay using beta-GAL activity. This assay was run at single shot at 5uM compound concentration per well. The biological reagents consisted of NIH-3T3 host cells and trypomastigotes parasitic cells; both cell types were set to a 3.3 * 10^5 cells/mL dilution in assay DMEM by means of a CASY cell counter device using a 60um capillary. 6 uL of the mixture were dispensed per well (about 1 * 10^3 host-cells and 1 * 10^3 parasites) with a Multidrop Combi dispenser. […] In all wells, the percentage of DMSO never exceeded 0.5%. Plates incubated for four days at 37C, 5% CO2. The substrate used for the assay fluorescence intensity (FLINT) readout was resorufin-beta-D-galactopiranoside (Sigma-Aldrich) at 5uM per well. It was diluted in PBS supplemented with the soft detergent Igepal (Fluka).; assay type: functional, organism-based, Mus musculus; conditions: Tulahuen, NIH3T3
Trypanosoma cruzi [2] = assay: (§1) GSK_TCAKS: pIC50 Trypanosoma cruzi Imaging: Infected Cells. […] Cells were then washed once with PBS before infection. T. cruzi trypomastigotes, collected at days 5 to 8 after infection from LLC-MK2 parasite infected cultures, were allowed to swim out for 4h at 37C from a centrifuged pellet (2,500 rpm/10 min/room temperature). Trypomastigotes were then collected and counted in a CASY Cell Counter. Trypomastigotes, in supplemented DMEM, were added to H9c2 cultures in a multiplicity of infection of 1 and incubated for 18 h. Cells were washed once with PBS before incubation of the infected H9c2 monolayer with trypsin (Life-Technologies) to detach cells from the flask. Cells were counted in a CASY Cell Counter using a 150 um capillary and their density set at 5 * 10^4 cells per mL in supplemented assay DMEM. Infected H9c2 were dispensed into 384-well poly-lysine coated assay plates at 50uL per well using a Multidrop Combi dispenser. After seeding them, the plates were incubated at 37C, 5% CO2 for 72h. Cultures were then fixed and stained by addition of 50 uL of a solution containing 8% formaldehyde and 4 uM DRAQ5 DNA dye (BioStatus, UK) per well. […] Five images were collected per well for reliable statistical analysis. Automated image analysis was performed with a script developed on Acapella High Content Imaging and Analysis Software (PerkinElmer). Output: percentage of infected cells per well as a second infection marker.; assay type: functional, organism-based, Rattus norvegicus; conditions: H9c2, 4 h
Trypanosoma cruzi [3] = assay: GSK_TCAKS: pIC50 Trypanosoma cruzi Imaging: Amastigotes/Cell. […] Cells were then washed once with PBS before infection. T. cruzi trypomastigotes, collected at days 5 to 8 after infection from LLC-MK2 parasite infected cultures, were allowed to swim out for 4h at 37C from a centrifuged pellet (2,500 rpm/10 min/room temperature). Trypomastigotes were then collected and counted in a CASY Cell Counter. Trypomastigotes, in supplemented DMEM, were added to H9c2 cultures in a multiplicity of infection of 1 and incubated for 18 h. Cells were washed once with PBS before incubation of the infected H9c2 monolayer with trypsin (Life-Technologies) to detach cells from the flask. Cells were counted in a CASY Cell Counter using a 150 um capillary and their density set at 5 * 10^4 cells per mL in supplemented assay DMEM. Infected H9c2 were dispensed into 384-well poly-lysine coated assay plates at 50uL per well using a Multidrop Combi dispenser. After seeding them, the plates were incubated at 37C, 5% CO2 for 72h. Cultures were then fixed and stained by addition of 50 uL of a solution containing 8% formaldehyde and 4 uM DRAQ5 DNA dye (BioStatus, UK) per well. […] Five images were collected per well for reliable statistical analysis. Automated image analysis was performed with a script developed on Acapella High Content Imaging and Analysis Software (PerkinElmer). Output: number of amastigotes per cell as infection level measurement.; assay type: functional, organism-based, Rattus norvegicus; conditions: H9c2, 4 h
Trypanosoma cruzi [4] = assay: as §1, with “H2C9” for “Trypanosoma cruzi”, “H9c2 Host Cardiomyocytes.” for “Infected Cells.”, “Number” for “percentage”, “H9c2 Host Cardiomyocytes nuclei to determine drug-related cytotoxicity.” for “infected cells per well as a second infection marker.”; assay type: functional, organism-based, Rattus norvegicus; conditions: H9c2, 4 h
Leishmania donovani [5] = assay: GSK_TCAKS: pIC50 Leishmania donovani viability assay using fluorescence intensity. Assay plates (1536-well) were prepared by adding 30nL per well of compound. For single shot assay, the final compound concentration was 5uM. […] Briefly, eGFP LdBOB axenic amastigotes were harvested, fixed and counted in a CASY cell counter (Roche-Applied Science). A final concentration of 1.5 * 10^5 cells per well were prepared in amastigote media containing 500 U/mL penicillin/streptomycin (Invitrogen) and 6uL was dispensed to each experimental well using a Multidrop Combi dispenser (Thermo Scientific). 6uL of assay media was dispensed to control columns used as reference for 100% compound response. Following incubation for 72 h at 37C, 5% CO2, 2 uL of resazurin was added to each well at a final concentration of 0.5 mM in phosphate buffered saline (PBS) with IGEPAL (Sigma-Aldrich), 0.05% (v/v).; assay type: functional, organism-based
Leishmania donovani [6] = assay: (§2) GSK_TCAKS: pIC50 Leishmania donovani Imaging: Infected Macrophages. Assay plates (384-well) were prepared by adding 250nL of compound to each well. For single shot assay, the final compound concentration was 5 uM. […] Automated image analysis was performed with a script developed on Acapella High Content Imaging and Analysis Software (PerkinElmer). Output: Percent of infected macrophage cells were reported for each well.; assay type: functional, organism-based, Homo sapiens; conditions: THP-1
Leishmania donovani [7] = assay: as §2, with “Amastigotes/Macrophages.” for “Infected Macrophages.”, “Average number” for “Percent”, “amastigotes per” for “infected”, “cell” for “cells”; assay type: functional, organism-based, Homo sapiens; conditions: THP-1
Leishmania donovani [8] = assay: as §2, with “THP-1 Host” for “Infected”, “THP-1 cell count” for “Percent of infected macrophage cells”; assay type: functional, organism-based, Homo sapiens
[9] = test system: Trypanosoma brucei brucei; assay: GSK_TCAKS: pIC50 Trypanosoma brucei viability assay using fluorescence intensity. Assay plates (1536-well) were prepared by dispensing 25nL of compound solution per well using an Echo acoustic dispenser (Labcyte).; assay type: functional, organism-based; conditions: Lister 427, 2 h
[10] = test system: Trypanosoma brucei brucei; assay: GSK_TCAKS: pIC50 Trypanosoma brucei viability assay using luminiscence. Assay plates (1536-well) were prepared. T. brucei cultures were harvested and counted in a CASY cell counter. A parasite suspension was prepared at a final concentration of 5 * 10^4 cells/mL in complete HMI9 medium and 6uL was dispensed to all wells containing compounds using a Multidrop Combi dispenser. 6uL of HMI9 media with 0.4% DMSO were dispensed to control columns. Plates were incubated for 24 h at 37C, 5% CO2 then tempered for 10 min at room temperature. ATP content was quantified by adding 4 uL of CellTiter-Glo Reagent (Promega) according to the manufacturer's instructions. Luminescence was measured using a ViewLux.; assay type: functional, organism-based; conditions: Lister 427, CASY
[11] = GSK_TCAKS: pIC50 HepG2 human cell line viability assay using luminiscence. […] Seeding density was checked to ensure that new mono-layers were not more than 50% confluent at the time of harvesting. Cell suspension was added to 500 mL of the same medium at a final density of 1.2 * 10^5 cells/mL. This cell suspension was dispensed (25 uL, 3000 cells per well) into 384-well clear-bottom plates using a Multidrop Combi dispenser. Prior to addition of the cell suspension, the screening compounds (250 nL) were pre-dispensed into the plates with an Echo liquid handler. Plates were incubated for 48 h at 37C, 5% CO2. After incubation, plates equilibrated at room temperature for 30 min before proceeding to develop the luminescent signal. The signal developer, CellTiter-Glo Reagent, was allowed to equilibrate at room temperature for 30 min and added to the plates (25uL per well) using a Multidrop Combi dispenser. Plates were left for 10 min at room temperature for stabilization and then read using a ViewLux.; assay type: toxicity, cell-based
[12] = molecular target: Sterol 14-alpha demethylase (Trypanosoma cruzi (strain CL Brener), UniProt Q7Z1V1); assay: GSK_TCAKS: pIC50 CYP51 from Trypanosoma cruzi.; assay type: functional
Sterol 14-alpha demethylase, sequence (Q7Z1V1 whole entry): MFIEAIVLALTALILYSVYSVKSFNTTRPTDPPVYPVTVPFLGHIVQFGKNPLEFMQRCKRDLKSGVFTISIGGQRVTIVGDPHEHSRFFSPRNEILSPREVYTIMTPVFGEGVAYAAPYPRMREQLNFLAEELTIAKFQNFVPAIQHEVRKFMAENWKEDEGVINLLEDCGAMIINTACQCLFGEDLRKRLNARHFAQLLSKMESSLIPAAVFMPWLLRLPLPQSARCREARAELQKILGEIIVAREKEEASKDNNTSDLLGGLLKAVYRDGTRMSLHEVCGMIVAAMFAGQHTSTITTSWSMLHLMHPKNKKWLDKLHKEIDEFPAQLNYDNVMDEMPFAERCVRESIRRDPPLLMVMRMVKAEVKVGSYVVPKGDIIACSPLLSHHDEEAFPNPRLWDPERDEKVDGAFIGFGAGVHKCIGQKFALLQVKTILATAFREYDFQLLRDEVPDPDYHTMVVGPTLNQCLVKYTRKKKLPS

| Compound | IC50 (Trypanosoma cruzi [1]) [µM] | IC50 (Trypanosoma cruzi [2]) [µM] | IC50 (Trypanosoma cruzi [3]) [µM] | IC50 (Trypanosoma cruzi [4]) [µM] | IC50 (Leishmania donovani [5]) [µM] | IC50 (Leishmania donovani [6]) [µM] | IC50 (Leishmania donovani [7]) [µM] | IC50 (Leishmania donovani [8]) [µM] | IC50 [9] [µM] | IC50 [10] [µM] | IC50 at 48 h [11] [µM] | IC50 [12] [µM] |
| --- | --- | --- | --- | --- | --- | --- | --- | --- | --- | --- | --- | --- |
| COc1ccc(C2CC(c3ccc(NS(C)(=O)=O)cc3)=NN2C(=O)c2cccs2)cc1OC (configuration not stated) | 25.1 | 31.6 | 15.8 | > 50.1 | 12.6 | 5.01 | 3.98 | > 50.1 | 15.8 | 25.1 | > 100 | 12.6 |
| O=C1NCCn2ccc(Nc3nc(N[C@H]4CC[C@H](O)CC4)ncc3Cl)c21 | 6.31 | 20 | 3.16 | 0.398 | 2.51 | 1 | 0.631 | 0.398 | 0.501 | 0.631 | > 100 | > 100 |
| Nc1nc(-c2ccccn2)nc(-n2nc(-c3ccccc3)cc2N)n1 | 0.501 | 2.51 | 0.316 | 2 | 2 | 0.794 | 0.794 | 10 | 1 | 3.16 | 10 | > 100 |
| CCN(CC)S(=O)(=O)c1ccc(OC)c(NC(=O)c2ccc([N+](=O)[O-])s2)c1 | 0.251 | 0.158 | 0.126 | > 50.1 | > 50.1 | > 50.1 | > 50.1 | > 50.1 | 0.398 | 0.631 | > 100 | 31.6 |
| CCc1nn(-c2ncc(F)c(NC(C)C)n2)c(N)c1C1CCCCC1 | 3.55 | 3.16 | 1.58 | 1 | 3.16 | 3.16 | 1.58 | 15.8 | 10 | 15.8 | 31.6 | > 100 |
| N#Cc1cnc(Nc2cccc(CCN3CCOCC3)c2)nc1Nc1ccccc1C(N)=O | 1.26 | 3.16 | 2 | 0.0126 | 2.51 | 1.58 | 1 | 0.794 | 0.0631 | 0.251 | 25.1 | 10 |
| c1ccc(Nc2nc3ccccc3[nH]2)nc1 | 7.94 | 25.1 | 10 | 10 | 25.1 | 7.94 | 7.94 | 25.1 | 15.8 | 25.1 | 79.4 | > 100 |
| C[C@@H](Oc1cc(-n2cnc3ccc(O[C@H]4CCNC4)cc32)sc1C(N)=O)c1ccccc1Cl | 3.16 | 12.6 | 6.31 | 0.631 | > 50.1 | 7.94 | 5.01 | 6.31 | 0.251 | 0.794 | 15.8 | 1.26 |
| O=C(Nc1nc2ccccc2[nH]1)c1c(O)c2cccc3c2n(c1=O)CC3 | 20 | 15.8 | 25.1 | 10 | 2.51 | 2 | 1 | > 50.1 | 15.8 | 20 | 10 | > 100 |
| COc1ccnc2[nH]cc(-c3cc(C(=O)N[C@H](CO)c4ccccc4)co3)c12 | 1.26 | 20 | 7.94 | 0.316 | 25.1 | 7.94 | 2 | 0.794 | 0.00501 | 0.0126 | 15.8 | 0.794 |
| CC(c1ccccn1)N(C)Cc1nc2ccccc2n1C(C)C (configuration not stated) | 1.58 | 6.31 | 2 | > 50.1 | 10 | 3.16 | 2 | 15.8 | 12.6 | 10 | 25.1 | 31.6 |
| Nc1nc(-c2ccccn2)nc(N)c1Cc1c(F)cccc1Cl | 1.58 | 2 | 1.58 | 1.26 | 2.51 | 1.26 | 1 | 31.6 | 2.51 | 2 | 20 | > 100 |
| Cc1ccc(Nc2nc(N)nc(CNC(c3nc4ccccc4[nH]3)C(C)C)n2)cc1 (configuration not stated) | 1 | 7.94 | 5.01 | > 50.1 | 3.98 | 2 | 1.26 | 25.1 | 7.94 | 5.01 | > 100 | 50.1 |
| O=C(N[C@H](CO)c1ccccc1)c1ccc(-c2c[nH]c3nccc(C(F)(F)F)c23)s1 | 7.94 | 10 | 10 | 12.6 | 31.6 | 25.1 | 15.8 | 12.6 | 0.158 | 0.398 | 63.1 | 6.31 |
| CN(C)S(=O)(=O)c1ccc(-c2cnc(N)c(-c3nc4ccc(F)cc4[nH]3)c2)cc1 | 1.26 | > 50.1 | > 50.1 | 1.26 | 2.51 | 1.58 | 0.631 | 3.98 | 0.398 | 1 | > 100 | 39.8 |
| CC(C)CC(=O)Nc1cc(C2CC2)nn1-c1nc2c(c(=O)[nH]1)CCCC2 | 0.794 | 0.501 | 0.126 | 2.51 | – | 7.94 | 5.01 | 5.01 | 0.2 | 0.2 | > 100 | > 100 |
| CNC(=O)C1Cc2ccccc2N1C(=O)Cc1ccc(F)cc1 (configuration not stated) | > 50.1 | > 50.1 | > 50.1 | > 50.1 | – | > 50.1 | > 50.1 | > 50.1 | 0.251 | 0.251 | > 100 | > 100 |
